From paper PMC4503722, “Novel Phenotypic Outcomes Identified for a Public Collection of Approved Drugs from a Publicly Accessible Panel of Assays” (PLoS ONE, 2015)
pEC50, pIC50: −log10 of the molar value. Read-outs that look alike come from different tables or passages of the source.

Tests used:
NCI-H716 cells = assay: cells; type: cell-based, Human; details: for IC50/EC50, hNCI-H716 GLP1 Secretion (assay number 12): concentration response; for hNCI-H716 GLP1 Secretion IC50/EC50: assay number 12; for pEC50: Homo sapiens, NCI-H716, read-out: GLP1 sec. EC50
STC-1 cell line = type: cell-based, mouse; details: for IC50/EC50, mSTC-1 GLP1 Secretion (assay number 13): concentration response; for mSTC-1 GLP1 Secretion IC50/EC50: assay number 13
[1] = system: endothelial tube formation in co-cultures of ECFCs and ADSCs treated with VEGF; assay: cells; type: cell-based, human; details: Homo sapiens
[2] = system: nuclear β-catenin in C2C12 cells; assay: cells; type: cell-based; details: Mus musculus
INS-1E cells = assay: cells; type: cell-based, rat; details: Rattus norvegicus, INS-1E, read-out: Ins. sec. EC50
HeLa cells = assay: cells; type: cell-based; details: Homo sapiens, HeLa, read-out: CellCycle G2/M
DLD-1 = assay: cells; type: cell-based; details: Homo sapiens
SW480 = assay: cells; type: cell-based; details: Homo sapiens
HCT116 = assay: cells; type: cell-based; details: Homo sapiens
[3] = system: HCT116 cells treated with a GSK3β inhibitor; assay: cells; type: cell-based; details: Homo sapiens
Colo320 = assay: cells; type: cell-based; details: Homo sapiens
HT-29 = assay: cells; type: cell-based; details: Homo sapiens
RKO = assay: cells; type: cell-based; details: Homo sapiens, RKO
SNU-C1 = assay: cells; type: cell-based; details: Homo sapiens
hp70S6K1 (RPS6KB1) = target: T1, hp70S6K1 (RPS6KB1) (Homo sapiens, UniProt P23443); assay: Cerep LANCE kinase assay hp70S6K1 (S1 assay 31); type: biochemical; details: read-out: p70S6K1
T1 construct: purchased Cerep (LANCE kinase assay platform, contract assay)
T1 sequence (P23443 whole entry): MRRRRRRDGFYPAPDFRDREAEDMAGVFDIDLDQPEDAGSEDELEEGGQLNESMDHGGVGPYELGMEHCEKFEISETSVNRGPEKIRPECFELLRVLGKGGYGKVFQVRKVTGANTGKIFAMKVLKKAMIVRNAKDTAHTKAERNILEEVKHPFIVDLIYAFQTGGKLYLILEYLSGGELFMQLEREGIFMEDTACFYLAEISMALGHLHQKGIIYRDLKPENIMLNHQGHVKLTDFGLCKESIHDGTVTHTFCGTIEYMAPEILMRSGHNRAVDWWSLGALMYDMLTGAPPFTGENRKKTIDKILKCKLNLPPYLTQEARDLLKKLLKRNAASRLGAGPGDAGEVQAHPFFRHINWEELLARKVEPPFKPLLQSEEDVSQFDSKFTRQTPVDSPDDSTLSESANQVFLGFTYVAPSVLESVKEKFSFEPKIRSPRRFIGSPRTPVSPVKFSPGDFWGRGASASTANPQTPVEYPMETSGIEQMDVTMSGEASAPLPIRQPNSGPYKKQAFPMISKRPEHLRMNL

hKDR = target: T2, hKDR (Homo sapiens, UniProt P35968); assay: Cerep LANCE kinase assay hKDR (S1 assay 32); type: biochemical; details: read-out: KDR
T2 construct: purchased Cerep (LANCE kinase assay platform, contract assay)
T2 sequence (P35968 20-1356): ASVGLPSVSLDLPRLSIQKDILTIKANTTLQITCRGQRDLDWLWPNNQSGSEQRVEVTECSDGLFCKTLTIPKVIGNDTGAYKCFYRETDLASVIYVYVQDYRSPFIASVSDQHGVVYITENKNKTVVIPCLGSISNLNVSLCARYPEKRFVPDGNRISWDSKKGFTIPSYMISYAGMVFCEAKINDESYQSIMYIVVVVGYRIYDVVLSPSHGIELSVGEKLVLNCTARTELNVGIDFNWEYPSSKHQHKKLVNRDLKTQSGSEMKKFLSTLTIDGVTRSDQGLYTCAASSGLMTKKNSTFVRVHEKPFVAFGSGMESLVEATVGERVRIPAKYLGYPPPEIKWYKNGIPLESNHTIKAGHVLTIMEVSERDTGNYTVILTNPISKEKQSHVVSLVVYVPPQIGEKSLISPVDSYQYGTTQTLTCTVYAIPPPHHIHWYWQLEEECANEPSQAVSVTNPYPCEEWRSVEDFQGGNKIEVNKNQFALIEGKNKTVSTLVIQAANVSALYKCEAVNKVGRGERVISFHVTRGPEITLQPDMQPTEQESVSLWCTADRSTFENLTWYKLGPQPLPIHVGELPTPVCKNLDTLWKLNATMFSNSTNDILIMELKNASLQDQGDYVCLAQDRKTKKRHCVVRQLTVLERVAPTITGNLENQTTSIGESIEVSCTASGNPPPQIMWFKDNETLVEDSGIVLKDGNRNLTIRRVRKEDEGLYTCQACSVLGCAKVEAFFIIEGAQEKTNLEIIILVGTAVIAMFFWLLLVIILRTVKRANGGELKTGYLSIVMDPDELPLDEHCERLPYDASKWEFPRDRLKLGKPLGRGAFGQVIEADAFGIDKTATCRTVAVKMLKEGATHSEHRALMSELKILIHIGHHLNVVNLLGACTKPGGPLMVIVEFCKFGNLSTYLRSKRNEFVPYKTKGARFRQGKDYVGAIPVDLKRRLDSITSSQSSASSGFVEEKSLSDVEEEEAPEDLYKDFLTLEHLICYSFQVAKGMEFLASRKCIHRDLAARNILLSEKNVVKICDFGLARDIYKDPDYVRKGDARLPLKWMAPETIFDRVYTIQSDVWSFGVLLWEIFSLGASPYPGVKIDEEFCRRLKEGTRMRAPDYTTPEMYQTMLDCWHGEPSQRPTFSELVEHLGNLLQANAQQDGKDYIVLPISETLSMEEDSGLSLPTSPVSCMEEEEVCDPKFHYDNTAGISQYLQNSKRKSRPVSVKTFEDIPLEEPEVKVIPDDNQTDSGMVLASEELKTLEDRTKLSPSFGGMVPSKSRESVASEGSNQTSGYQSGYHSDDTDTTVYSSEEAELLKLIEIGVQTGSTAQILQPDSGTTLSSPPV

hJAK2 = target: T3, hJAK2 (Homo sapiens, UniProt O60674); assay: Cerep LANCE kinase assay hJAK2 (S1 assay 33); type: biochemical; details: read-out: JAK2
T3 construct: purchased Cerep (LANCE kinase assay platform, contract assay)
T3 sequence (O60674 whole entry): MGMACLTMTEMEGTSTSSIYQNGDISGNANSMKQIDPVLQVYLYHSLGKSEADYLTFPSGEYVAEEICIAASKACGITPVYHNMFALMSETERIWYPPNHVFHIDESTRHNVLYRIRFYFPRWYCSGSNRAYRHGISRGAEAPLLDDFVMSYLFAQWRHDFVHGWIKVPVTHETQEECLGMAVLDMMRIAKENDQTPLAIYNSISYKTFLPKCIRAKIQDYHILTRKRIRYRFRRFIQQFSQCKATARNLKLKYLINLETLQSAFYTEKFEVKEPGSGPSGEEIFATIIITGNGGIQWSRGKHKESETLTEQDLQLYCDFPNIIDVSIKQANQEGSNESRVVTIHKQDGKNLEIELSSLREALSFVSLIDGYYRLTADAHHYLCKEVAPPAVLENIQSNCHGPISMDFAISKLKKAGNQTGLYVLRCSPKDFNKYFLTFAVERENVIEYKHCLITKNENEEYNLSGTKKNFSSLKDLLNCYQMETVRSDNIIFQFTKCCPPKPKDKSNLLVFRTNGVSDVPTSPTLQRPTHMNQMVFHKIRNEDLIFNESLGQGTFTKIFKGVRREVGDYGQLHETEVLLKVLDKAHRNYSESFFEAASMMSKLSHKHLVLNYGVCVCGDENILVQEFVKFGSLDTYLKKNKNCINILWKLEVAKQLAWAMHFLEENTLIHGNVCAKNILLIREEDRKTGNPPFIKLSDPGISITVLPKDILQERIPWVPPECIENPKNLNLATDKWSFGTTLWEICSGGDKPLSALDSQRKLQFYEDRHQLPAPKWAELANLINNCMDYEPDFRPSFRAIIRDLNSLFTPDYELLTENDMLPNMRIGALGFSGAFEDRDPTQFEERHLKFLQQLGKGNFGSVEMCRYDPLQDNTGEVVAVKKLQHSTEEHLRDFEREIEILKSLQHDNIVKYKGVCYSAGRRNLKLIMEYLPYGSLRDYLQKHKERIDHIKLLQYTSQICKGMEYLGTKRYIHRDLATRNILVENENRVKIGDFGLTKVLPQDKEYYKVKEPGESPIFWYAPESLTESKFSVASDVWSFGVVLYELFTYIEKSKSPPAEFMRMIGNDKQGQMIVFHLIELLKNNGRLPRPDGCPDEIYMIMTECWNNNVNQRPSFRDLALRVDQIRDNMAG

hGSK3b = target: T4, hGSK3b (Homo sapiens, UniProt P49841); assay: Cerep LANCE kinase assay hGSK3b (S1 assay 34); type: biochemical; details: read-out: GSK3b
T4 construct: purchased Cerep (LANCE kinase assay platform, contract assay)
T4 sequence (P49841 whole entry): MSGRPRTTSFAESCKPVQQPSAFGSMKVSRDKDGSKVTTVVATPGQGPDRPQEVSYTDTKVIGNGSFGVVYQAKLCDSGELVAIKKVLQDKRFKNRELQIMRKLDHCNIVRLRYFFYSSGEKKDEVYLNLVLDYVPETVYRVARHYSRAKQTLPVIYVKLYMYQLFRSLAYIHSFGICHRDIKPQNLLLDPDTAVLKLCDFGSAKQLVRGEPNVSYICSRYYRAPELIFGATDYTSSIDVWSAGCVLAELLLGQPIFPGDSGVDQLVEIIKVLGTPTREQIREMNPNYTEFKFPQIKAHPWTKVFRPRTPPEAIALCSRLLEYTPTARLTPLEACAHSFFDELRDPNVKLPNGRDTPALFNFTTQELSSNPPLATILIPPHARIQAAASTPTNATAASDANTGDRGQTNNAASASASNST

hFLT3 = target: T5, hFLT3 (Homo sapiens, UniProt P36888); assay: Cerep LANCE kinase assay hFLT3 (S1 assay 35); type: biochemical; details: read-out: FLT3
T5 construct: purchased Cerep (LANCE kinase assay platform, contract assay)
T5 sequence (P36888 27-993): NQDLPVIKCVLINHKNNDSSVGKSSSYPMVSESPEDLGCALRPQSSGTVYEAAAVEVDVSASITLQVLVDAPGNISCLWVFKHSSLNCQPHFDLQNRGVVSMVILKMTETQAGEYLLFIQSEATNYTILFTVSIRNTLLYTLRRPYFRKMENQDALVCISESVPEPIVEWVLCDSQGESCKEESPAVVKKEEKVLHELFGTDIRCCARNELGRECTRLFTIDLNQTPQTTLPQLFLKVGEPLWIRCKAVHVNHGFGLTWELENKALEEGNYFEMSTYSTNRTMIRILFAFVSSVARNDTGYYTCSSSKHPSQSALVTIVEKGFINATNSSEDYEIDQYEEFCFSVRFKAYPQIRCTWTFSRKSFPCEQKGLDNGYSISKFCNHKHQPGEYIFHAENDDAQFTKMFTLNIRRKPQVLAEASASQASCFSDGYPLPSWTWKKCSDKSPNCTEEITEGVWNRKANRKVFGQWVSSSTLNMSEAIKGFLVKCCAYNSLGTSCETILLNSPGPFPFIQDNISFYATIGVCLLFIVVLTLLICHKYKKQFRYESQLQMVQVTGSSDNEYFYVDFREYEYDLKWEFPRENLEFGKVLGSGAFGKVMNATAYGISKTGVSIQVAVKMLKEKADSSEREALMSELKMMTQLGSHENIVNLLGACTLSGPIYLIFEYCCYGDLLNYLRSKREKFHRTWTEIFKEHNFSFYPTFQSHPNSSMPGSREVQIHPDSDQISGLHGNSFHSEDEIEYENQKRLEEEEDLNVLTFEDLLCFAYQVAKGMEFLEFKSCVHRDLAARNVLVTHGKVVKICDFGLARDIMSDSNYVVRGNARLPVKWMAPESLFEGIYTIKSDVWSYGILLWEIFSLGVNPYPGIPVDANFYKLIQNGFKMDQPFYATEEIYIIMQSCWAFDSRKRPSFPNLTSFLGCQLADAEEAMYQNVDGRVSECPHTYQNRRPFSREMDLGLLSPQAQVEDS

[4] = DLD-1, 72 h, read-out: DLD-1 viab. IC50
[5] = SW480, 72 h, read-out: SW480 viab. IC50
[6] = HCT-116, 72 h, read-out: HCT-116 viab. IC50
[7] = HCT-116, read-out: Basal_Viability ATP HCT116
[8] = HCT-116, 72 h, read-out: HCT-116 (GSK3β) viab. IC50
[9] = HCT-116, read-out: GSK3b inh pretreated_Viability ATP HCT116
[10] = COLO 320, 72 h, read-out: Colo320 viab. IC50
[11] = HT-29, 72 h, read-out: HT-29 viab. IC50
[12] = read-out: Basal_Viability ATP RKO
[13] = SNU-C1, 72 h, read-out: SNU-C1 viab. IC50

Compound: CCOC(=O)[C@@H](N)CS.Cl [NCGC00166061-02]
- IC50/EC50, hNCI-H716 GLP1 Secretion (assay number 12) (NCI-H716 cells): > 40 µM
- IC50/EC50, mSTC-1 GLP1 Secretion (assay number 13) (STC-1 cell line): 14.3442 µM

Compound: O=C1OC2(c3ccccc31)c1cc(I)c(O)c(I)c1Oc1c2cc(I)c(O)c1I [NCGC00166249-03]
- hNCI-H716 GLP1 Secretion IC50/EC50 (NCI-H716 cells): > 40 µM
- mSTC-1 GLP1 Secretion IC50/EC50 (STC-1 cell line): 2.9301 µM

Compound: CCCCCCCCCCCCOCCOCCOCCOCCOCCOCCOCCOCCOCCO [NCGC00166290-03]
- hNCI-H716 GLP1 Secretion IC50/EC50 (NCI-H716 cells): > 40 µM
- mSTC-1 GLP1 Secretion IC50/EC50 (STC-1 cell line): 30.3683 µM

Compound: CCN(CC)CCOC(=O)C(Cc1cccc2ccccc12)CC1CCCO1 (stereo not drawn) [NCGC00178213-05]
- hNCI-H716 GLP1 Secretion IC50/EC50 (NCI-H716 cells): > 40 µM
- mSTC-1 GLP1 Secretion IC50/EC50 (STC-1 cell line): > 40 µM

Compound: NC[C@@H]1O[C@H](O[C@H]2[C@@H](O)[C@H](O[C@@H]3[C@@H](O)[C@H](N)C[C@H](N)[C@H]3O[C@H]3O[C@H](CN)[C@@H](O)[C@H](O)[C@H]3N)O[C@@H]2CO)[C@H](N)[C@@H](O)[C@@H]1O [NCGC00179612-03]
- IC50/EC50, hNCI-H716 GLP1 Secretion (assay number 12) (NCI-H716 cells): > 40 µM
- IC50/EC50, mSTC-1 GLP1 Secretion (assay number 13) (STC-1 cell line): > 40 µM

Compound: C#C[C@]1(O)CC[C@H]2[C@@H]3CCC4=CCCC[C@@H]4[C@H]3CC[C@@]21C [NCGC00179676-03]
- hNCI-H716 GLP1 Secretion IC50/EC50 (NCI-H716 cells): 27.5211 µM
- mSTC-1 GLP1 Secretion IC50/EC50 (STC-1 cell line): > 40 µM

Compound: O=C(O)c1cc(N=Nc2ccc([O-])c(C(=O)O)c2)ccc1[O-].[Na+].[Na+] [NCGC00181008-02]
- hNCI-H716 GLP1 Secretion IC50/EC50 (NCI-H716 cells): > 40 µM
- mSTC-1 GLP1 Secretion IC50/EC50 (STC-1 cell line): 9.5352 µM

Compound: CCCOC(C(=O)OC1CCN(C)CC1)(c1ccccc1)c1ccccc1.Cl [NCGC00181103-02]
- hNCI-H716 GLP1 Secretion IC50/EC50 (NCI-H716 cells): > 40 µM
- mSTC-1 GLP1 Secretion IC50/EC50 (STC-1 cell line): 23.8177 µM

Compound: O=C(Nc1cccc2c(=O)cc(-c3nn[nH]n3)oc12)c1ccc(OCCCCc2ccccc2)cc1 [NCGC00181765-01]
- hNCI-H716 GLP1 Secretion IC50/EC50 (NCI-H716 cells): > 40 µM
- mSTC-1 GLP1 Secretion IC50/EC50 (STC-1 cell line): > 40 µM

Compound: Cc1nnc2n1-c1sc(CCc3ccc(CC(C)C)cc3)cc1C(c1ccccc1Cl)=NC2C (stereo not drawn) [NCGC00183008-01]
- hNCI-H716 GLP1 Secretion IC50/EC50 (NCI-H716 cells): 24.6779 µM
- mSTC-1 GLP1 Secretion IC50/EC50 (STC-1 cell line): > 40 µM

Compound: Cc1c(C)c2c(c(C)c1OC(=O)CCC(=O)OCCO)CC[C@@](C)(CCC[C@H](C)CCC[C@H](C)CCCC(C)C)O2 [NCGC00183103-01]
- hNCI-H716 GLP1 Secretion IC50/EC50 (NCI-H716 cells): > 40 µM
- mSTC-1 GLP1 Secretion IC50/EC50 (STC-1 cell line): > 40 µM

Compound: COc1cc(Nc2c(C#N)cnc3cc(OCCCN4CCN(C)CC4)c(OC)cc23)c(Cl)cc1Cl [NCGC00241107-02]
- hNCI-H716 GLP1 Secretion IC50/EC50 (NCI-H716 cells): 25.1177 µM
- mSTC-1 GLP1 Secretion IC50/EC50 (STC-1 cell line): > 40 µM

Compound: Nc1ccc(Cl)cc1C(=O)c1ccccc1F [NCGC00253725-01]
- hNCI-H716 GLP1 Secretion IC50/EC50 (NCI-H716 cells): > 40 µM
- mSTC-1 GLP1 Secretion IC50/EC50 (STC-1 cell line): > 40 µM

Compound: COc1ccc(OC(=O)N(CC(=O)O)Cc2ccc(OCCc3nc(-c4ccccc4)oc3C)cc2)cc1 [NCGC00262954-01]
- hNCI-H716 GLP1 Secretion IC50/EC50 (NCI-H716 cells): 36.168 µM
- mSTC-1 GLP1 Secretion IC50/EC50 (STC-1 cell line): 1.5351 µM

Compound: [Cl][Pt+2][Cl].[NH2-].[NH2-] [NCGC00263537-01]
- IC50/EC50, hNCI-H716 GLP1 Secretion (assay number 12) (NCI-H716 cells): > 40 µM
- IC50/EC50, mSTC-1 GLP1 Secretion (assay number 13) (STC-1 cell line): > 40 µM

Compound: Cc1nc2ccc(CN(C)c3ccc(C(=O)N[C@@H](CCC(=O)O)C(=O)O)s3)cc2c(=O)[nH]1 [raltitrexed, reference compound]
- pIC50 ([1]; read-out: Anti-Angio IC50): 6.46
- pIC50 ([1]; read-out: Anti-Angiogenesis): 6.45
- pEC50 ([2]; C2C12, read-out: Wnt Pathway): 8.38
- pEC50 ([2]; C2C12, read-out: Wnt pot. EC50): 8.40
- pEC50 (INS-1E cells): < 5.00
- pEC50 (NCI-H716 cells): < 5.00
- pEC50 (HeLa cells): < 5.00
- pIC50 (DLD-1; [4]): < 4.70
- pIC50 (SW480; [5]): 9.00
- pIC50 (HCT116; [6]): 8.40
- pIC50 (HCT116; [7]): 8.37
- pIC50 [3, 8]: 8.70
- pIC50 [3, 9]: 8.64
- pIC50 (Colo320; [10]): < 4.70
- pIC50 (HT-29; [11]): < 4.70
- pIC50 (RKO; 72 h, read-out: RKO viab. IC50): 8.52
- pIC50 (RKO; [12]): 8.54
- pIC50 (SNU-C1; [13]): < 4.70
- pIC50 (hp70S6K1 (RPS6KB1)): < 4.70
- pIC50 (hKDR): < 4.70
- pIC50 (hJAK2): < 4.70
- pIC50 (hGSK3b): 5.40
- pIC50 (hFLT3): < 4.70

Compound: COc1cc(NCc2ccc3nc(N)nc(N)c3c2C)cc(OC)c1OC [trimetrexate, reference compound]
- pIC50 ([1]; read-out: Anti-Angio IC50): 5.36
- pIC50 ([1]; read-out: Anti-Angiogenesis): 5.35
- pEC50 ([2]; C2C12, read-out: Wnt Pathway): 8.48
- pEC50 ([2]; C2C12, read-out: Wnt pot. EC50): 8.52
- pEC50 (INS-1E cells): < 5.00
- pEC50 (NCI-H716 cells): < 5.00
- pEC50 (HeLa cells): < 5.00
- pIC50 (DLD-1; [4]): 6.70
- pIC50 (DLD-1; DLD-1, read-out: Basal_Viability ATP DLD-1): 6.71
- pIC50 (SW480; [5]): 7.23
- pIC50 (SW480; SW480, read-out: Basal_Viability ATP SW480): 7.23
- pIC50 (HCT116; [6]): 7.64
- pIC50 (HCT116; [7]): 7.64
- pIC50 [3, 8]: 8.40
- pIC50 [3, 9]: 8.41
- pIC50 (Colo320; [10]): 6.41
- pIC50 (Colo320; COLO 320, read-out: Basal_Viability ATP Colo 320): 6.41
- pIC50 (HT-29; [11]): 7.68
- pIC50 (HT-29; HT-29, read-out: Basal_Viability ATP HT-29): 7.67
- pIC50 (RKO; 72 h, read-out: RKO viab. IC50): 8.52
- pIC50 (RKO; [12]): 8.57
- pIC50 (SNU-C1; [13]): 5.29
- pIC50 (SNU-C1; SNU-C1, read-out: Basal_Viability ATP SNU-C1): 5.29
- pIC50 (hp70S6K1 (RPS6KB1)): < 4.70
- pIC50 (hKDR): < 4.70
- pIC50 (hJAK2): < 4.70
- pIC50 (hGSK3b): < 4.70
- pIC50 (hFLT3): < 4.70
